Measurements from publication PMC9232448 (European Journal of Drug Metabolism and Pharmacokinetics, 2022).
Read-outs that look alike come from different tables or passages of the source.

How the values were obtained:
[1] = test system: CYP3A; settings: human, in vivo; cited from earlier work
[2] = Metabolic stability in hepatocyte induction incubations; assay type: in vitro ADME, human; settings: last 24 hours of the incubation
[3] = test system: CYP3A4 mRNA; test: CYP3A4 mRNA induction in plated cryopreserved human hepatocytes; assay type: cell-based; settings: three donors; for true negative in vitro induction: statistical dose response and fold induction
[4] = cited from earlier work
[5] = cited from earlier work; remark: listed apart in the source
[6] = Estimated free fraction in culture medium; settings: bovine, hepatocyte culture medium with 1.25 mg/ml BSA
[7] = test system: human hepatocytes; test: Cytotoxicity / bell-shaped curves in hepatocyte induction incubations; assay type: cell-based; settings: for concentrations removed from fitting (bell-shaped curve, suspected cytotoxicity): all donors; for concentration above which cytotoxicity was seen: donor two
[8] = reported value before fu was set to 0.01

Structure (SMILES): NC(=O)N1c2ccccc2C=Cc2ccccc21 [Carbamazepine]
- AUCR range [1]: 0.124–0.603

Structure (SMILES): Cn1c(Cn2ccc(C(F)(F)F)c(Oc3cc(Cl)cc(C#N)c3)c2=O)n[nH]c1=O [Doravirine, doravirine]
- % loss when comparing the Cavg to the T0 concentration (limited depletion) [2]: < 25%
- concentration-dependent increase in CYP3A4 mRNA [3]: concentration-dependent increases in all three donors

Structure (SMILES): CCc1ccc(CCOc2ccc(CC3SC(=O)NC3=O)cc2)nc1 (stereo not drawn) [pioglitazone]
- observed fu,in vitro [4]: 0.22

Structure (SMILES): O=C1Nc2ccc(Cl)cc2[C@@](C#CC2CC2)(C(F)(F)F)O1 [Efavirenz]
- fu (reported plasma protein binding) ([5]; plasma): 0.0025
- AUCR range [1]: 0.240–0.929

Structure (SMILES): Cc1nnc(C(=O)NC(C)(C)c2nc(C(=O)NCc3ccc(F)cc3)c(O)c(=O)n2C)o1 [Raltegravir, raltegravir]
- true negative in vitro induction [3]: true in vitro negatives in all three donors

Structure (SMILES): Cc1cc(CCCOc2c(C)cc(-c3noc(C(F)(F)F)n3)cc2C)on1 [Pleconaril]
- fraction unbound [6]: 0.256
- correction factor applied to nominal concentrations (nonspecific binding) [4]: 0.2
- fu (reported plasma protein binding) [5, 8]: 0.01

Structure (SMILES): CCC(=O)NC[C@@H]1C[C@H]1c1cccc2c1CCO2 [Tasimelteon, tasimelteon]
- concentration-dependent increase in CYP3A4 mRNA [3]: concentration-dependent increases in all three donors

Structure (SMILES): CC(C)OC(=O)[C@H](C)N[P@](=O)(OC[C@H]1O[C@@H](n2ccc(=O)[nH]c2=O)[C@](C)(F)[C@@H]1O)Oc1ccccc1 [Sofosbuvir, sofosbuvir]
- concentrations removed from fitting (bell-shaped curve, suspected cytotoxicity) [7]: 300 µM
- true negative in vitro induction [3]: negative in one donor
- concentration-dependent increase in CYP3A4 mRNA [3]: concentration-dependent increases in two of three donors

Structure (SMILES): Cc1cc(/C=C/C#N)cc(C)c1Nc1ccnc(Nc2ccc(C#N)cc2)n1 [Rilpivirine, rilpivirine]
- concentration above which cytotoxicity was seen [7]: > 100 µM
- concentration above which signs of cytotoxicity were seen ([7]; donors one): > 30 µM
- concentration-dependent increase in CYP3A4 mRNA [3]: concentration-dependent increases in all three donors

Structure (SMILES): Nc1nc(-n2cc(C(=O)O)c(=O)c3cc(F)c(N4CC(O)C4)c(Cl)c32)c(F)cc1F [Delafloxacin, delafloxacin]
- % loss when comparing the Cavg to the T0 concentration (limited depletion) [2]: < 25%
- concentration at which apparent cytotoxicity was seen ([7]; donor three): 300 µM
- concentration above which cytotoxicity was seen [7]: > 100 µM
- true negative in vitro induction [3]: negative in two donors
- concentration-dependent increase in CYP3A4 mRNA [3]: concentration-dependent increases in one of three donors

Structure (SMILES): CN(CCOc1ccc(CC2SC(=O)NC2=O)cc1)c1ccccn1 (stereo not drawn) [rosiglitazone]
- observed fu,in vitro [4]: 0.15

Structure (SMILES): Cn1cnc2c(F)c(Nc3ccc(Br)cc3F)c(C(=O)NOCCO)cc21 [Binimetinib]
- concentration-dependent increase in CYP3A4 mRNA [3]: concentration-dependent increases in all three donors

Structure (SMILES): O=C1NC(=O)C(c2ccccc2)(c2ccccc2)N1 [Phenytoin]
- AUCR range [1]: 0.105–0.607

Structure (SMILES): CO[C@H]1/C=C/O[C@@]2(C)Oc3c(C)c(O)c4c(O)c(c(/C=N/N5CCN(C)CC5)c(O)c4c3C2=O)NC(=O)/C(C)=C\C=C\[C@H](C)[C@H](O)[C@@H](C)[C@@H](O)[C@@H](C)[C@H](OC(C)=O)[C@@H]1C [Rifampicin]
- % loss when comparing the Cavg to the T0 concentration (limited depletion) [2]: < 25%

Structure (SMILES): CO[C@H]1/C=C/O[C@@]2(C)Oc3c(C)c(O)c4c(O)c(c5c(nc6cc(C)ccn65)c4c3C2=O)NC(=O)/C(C)=C\C=C\[C@H](C)[C@H](O)[C@@H](C)[C@@H](O)[C@@H](C)[C@H](OC(C)=O)[C@@H]1C [Rifaximin, rifaximin]
- % loss when comparing the Cavg to the T0 concentration (limited depletion) [2]: < 25%
- concentration-dependent increase in CYP3A4 mRNA [3]: concentration-dependent increases in all three donors

Structure (SMILES): CCC1(c2ccccc2)C(=O)NC(=O)NC1=O [Phenobarbital]
- AUCR [1]: 0.394

Structure (SMILES): CC(C)N(CCCCOCC(=O)NS(C)(=O)=O)c1cnc(-c2ccccc2)c(-c2ccccc2)n1 [Selexipag, selexipag]
- fu (reported plasma protein binding) [5, 8]: < 0.01
- concentration-dependent increase in CYP3A4 mRNA [3]: concentration-dependent increases in all three donors

Structure (SMILES): C[C@H](Cn1cnc2c(N)ncnc21)OCP(=O)(O)O [Tenofovir, tenofovir]
- % loss when comparing the Cavg to the T0 concentration (limited depletion) [2]: < 25%
- true negative in vitro induction [3]: true in vitro negatives in all three donors

Structure (SMILES): COc1ccccc1Oc1c(NS(=O)(=O)c2ccc(C(C)(C)C)cc2)nc(-c2ncccn2)nc1OCCO [Bosentan]
- observed fu,in vitro [4]: 0.38

Structure (SMILES): O=C(O)c1ccc(CN2C[C@@H]3C[C@H]2CN3Cc2ccc(Oc3ccc(-c4ncco4)cc3)cc2)cc1 [Acebilustat, acebilustat]
- % loss when comparing the Cavg to the T0 concentration (limited depletion) [2]: < 25%
- true negative in vitro induction [3]: true in vitro negatives in all three donors

Structure (SMILES): O=C(O)CSc1nnc(Br)n1-c1ccc(C2CC2)c2ccccc12 [Lesinurad, lesinurad]
- % loss when comparing the Cavg to the T0 concentration (limited depletion) [2]: < 25%
- concentrations removed from fitting (bell-shaped curve, suspected cytotoxicity) [7]: > 100 µM
- concentration-dependent increase in CYP3A4 mRNA [3]: concentration-dependent increases in all three donors

Structure (SMILES): O=C(O)c1ccc2nc(-c3cc(Cl)cc(Cl)c3)oc2c1 [Tafamidis, tafamidis]
- % loss when comparing the Cavg to the T0 concentration (limited depletion) [2]: < 25%
- fu (reported plasma protein binding) ([5]; plasma): 0.005
- concentration-dependent increase in CYP3A4 mRNA [3]: concentration-dependent increases in all three donors
